# According to patent publication US20230174493A1, “Solid Dispersions of Amorphous 3,4-Diphenyl-4,5-Dihydro-1H-Pyrazole Derivatives, Compositions Comprising them and Uses Thereof as Cannabinoid CB1 Receptor Inhibitors” (INVERSAGO PHARMA INC., priority 2020, published 2023):
# Columns and labels:
# [1] = Oral bioavailability of crystalline form (development efforts)
# [2] = Solubility of crystalline form (development efforts)
# [3] = Pharmacokinetic properties in Beagle dogs, single oral dose compared with intravenous administration; details: dog, in vivo, 2 mg/kg, fasted
# Experimental: Pharmacokinetic properties were measured in Beagle dogs. Administration was done orally and compared with intravenous administration (2 mg/kg, in DMSO/tetraglycol/PEG400/water, 10:20:25:45). Each formulation was tested as a single dose on three (3) animals except for F6(b), which was tested on five (5) animals. Dogs were sampled at times 0, 1 h, 4 h, 8 h, 12 h, 24 h, 36 h, 48 h, and 72 h to give full time-concentration profiles. All tests were carried out with fasted dogs except test on normal dogs using F-SEDDS, which was carried on fed dogs. The results are as presented as an average between the tested animals.
structure (smiles),measurement,setting,value
C/C(N)=N/C(=N\S(=O)(=O)c1ccc(C(F)(F)F)cc1)N1C[C@H](c2ccccc2)C(c2ccc(Cl)cc2)=N1 [Compound 1],Oral bioavailability,[1],very poor oral bioavailability
same,Solubility,[2],essentially insoluble
same,C0,"[3]; i.v. 2 mg/kg in DMSO/tetraglycol/PEG400/water 10:20:25:45, Normal dogs (about 11 kg)",2220 ng/mL
same,C0,"[3]; i.v. 2 mg/kg in DMSO/tetraglycol/PEG400/water 10:20:25:45, Small dogs (about 7.5 kg)",1820 ng/mL
same,AUC(0-inf),"[3]; i.v. 2 mg/kg, Normal dogs (about 11 kg)",15400 ng·h/mL
same,half-life,"[3]; i.v. 2 mg/kg, Normal dogs (about 11 kg), read-out: T½ (converted)",5.88 h
